This note sets out measurements from patent publication US20240228482A1, “COMPOUNDS, COMPOSITIONS AND METHODS OF TREATING CANCER” (HOTSPOT THERAPEUTICS, INC., priority 2021, published 2024).

The target in the experiment is T1, CBL-B (Homo sapiens, UniProt Q13191).
T1 construct: GST
In words: CBL-B TR-FRET IC50 screening (E1/E2 ubiquitination, Biotin-Ubiquitin, Anti GST-Tb donor / Streptavidin-d2 acceptor). Format: biochemical. As to conditions: CBL-B 10 nM final; 11-point titration from 100 uM; binned A-F; read-out: CBL-B TR-FRET activity IC50. A general note: Time-resolved FRET reads energy transfer from a long-lived donor to a nearby acceptor.

Bounds are passed on as bounds.

T1 sequence (Q13191 whole entry): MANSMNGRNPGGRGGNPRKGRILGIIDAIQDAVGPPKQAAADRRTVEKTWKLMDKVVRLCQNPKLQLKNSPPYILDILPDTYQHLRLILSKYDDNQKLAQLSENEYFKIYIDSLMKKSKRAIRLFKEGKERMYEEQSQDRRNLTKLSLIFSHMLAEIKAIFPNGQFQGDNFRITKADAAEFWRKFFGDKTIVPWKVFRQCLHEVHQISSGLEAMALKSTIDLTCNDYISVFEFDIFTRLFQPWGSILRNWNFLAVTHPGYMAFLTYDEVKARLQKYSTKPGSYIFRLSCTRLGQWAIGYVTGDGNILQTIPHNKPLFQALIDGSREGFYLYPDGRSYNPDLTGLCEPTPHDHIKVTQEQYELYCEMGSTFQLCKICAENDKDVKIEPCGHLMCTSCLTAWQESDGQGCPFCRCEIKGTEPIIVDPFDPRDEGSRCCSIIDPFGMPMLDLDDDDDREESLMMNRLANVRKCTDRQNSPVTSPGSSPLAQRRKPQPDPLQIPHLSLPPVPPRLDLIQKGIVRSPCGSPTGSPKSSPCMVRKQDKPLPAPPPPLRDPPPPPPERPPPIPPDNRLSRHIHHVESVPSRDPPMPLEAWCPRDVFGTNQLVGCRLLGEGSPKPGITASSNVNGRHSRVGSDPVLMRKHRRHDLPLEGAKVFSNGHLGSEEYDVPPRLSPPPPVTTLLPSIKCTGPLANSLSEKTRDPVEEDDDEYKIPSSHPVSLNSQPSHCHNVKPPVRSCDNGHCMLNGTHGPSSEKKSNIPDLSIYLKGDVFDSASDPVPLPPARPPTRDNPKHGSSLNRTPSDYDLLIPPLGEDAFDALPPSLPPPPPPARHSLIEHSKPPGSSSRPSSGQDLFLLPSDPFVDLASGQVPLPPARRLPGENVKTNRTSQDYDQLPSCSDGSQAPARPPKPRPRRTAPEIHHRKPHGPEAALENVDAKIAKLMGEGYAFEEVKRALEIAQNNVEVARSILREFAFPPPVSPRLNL

As a reminder, the IC50 is the concentration that inhibits the measured activity by half. Consider `C[C@H]1CCCN(Cc2cc(C(F)(F)F)c3cn(-c4cccc([C@@H](c5nncn5C)C5CCC5)c4)c(=O)n3c2)C1` [Compound 86], for which the concentration for half-maximal inhibition (IC50) lay within 301 to 1000 nM.
Take `CN(C)C1CCC(c2cc(C(F)(F)F)c3cn(-c4cccc(C5(Cc6nncn6C)COC5)c4)c(=O)n3c2)CC1` (stereo not drawn) [Compound 87]: the IC50 was in the range of 100 to 300 nM.
On to `COc1cc(C(F)(F)F)c2cn(-c3cccc(C4(Cc5nncn5C)COC4)c3)c(=O)n2c1` [Compound 88], for which the IC50 was 1000 to 3000 nM.
Consider `Cn1cnnc1CC1(c2cccc(-n3cc4c(C(F)(F)F)cc(C#CCN5CCCC5)cn4c3=O)c2)COC1` [Compound 89], for which the IC50 is 100 to 300 nM.
`Cn1cnnc1CC1(c2cccc(-n3cc4c(C(F)(F)F)cc(COCCO)cn4c3=O)c2)COC1` [Compound 90]: the IC50 lay in the range of 100 to 300 nM.
Regarding `O=c1n(-c2cccc(C3(Cc4nncn4C(F)F)COC3)c2)cc2c(C(F)(F)F)cc(CN3CCC4(CC4)C3)cn12` [Compound 91], the IC50 was < 100 nM.
In the case of `Cn1cnnc1CC1(c2cccc(-n3cc4c(C(F)(F)F)cc(CCC(=O)O)cn4c3=O)c2)COC1` [Compound 92], the IC50 was in the range of 301 to 1000 nM.
Take `Cn1cnnc1CC1(c2cccc(-n3cc4c(C(F)(F)F)cc(Cl)cn4c3=O)c2)COC1` [Compound 93]: the IC50 is 100 to 300 nM.
Consider `Cn1cnnc1CC1(c2cccc(-n3cc4c(C=O)cccn4c3=O)c2)COC1` [Compound 94], for which the half-inhibitory concentration (IC50) was in the range of 3000 to 10000 nM.
`Cn1cnnc1CC1(c2cccc(-n3cc4c(C(F)F)cccn4c3=O)c2)COC1` [Compound 95]: the IC50 lay within 301 to 1000 nM.
For the molecule `Cn1cnnc1CC1(c2cccc(-n3cc4c(C(F)(F)F)cc(OCC(C)(C)O)cn4c3=O)c2)COC1` [Compound 98], the half-maximal inhibitory concentration (IC50) lay within 100 to 300 nM.
The value for `Cn1cnnc1CC1(c2cccc(-n3cc4c(C(F)(F)F)cc(C(C)(C)O)cn4c3=O)c2)COC1` [Compound 101] was 1000 to 3000 nM; that for `[2H]C([2H])([2H])n1cnnc1C1(c2cccc(-n3cc4c(C(F)(F)F)cc(CN5CCC[C@H](C)C5)cn4c3=O)c2)CC2(CC2)C1` [Compound 102] was < 100 nM; that for `Cn1cnnc1C1(c2cccc(-n3cc4c(C(F)(F)F)cc(Br)cn4c3=O)c2)CC2(CC2)C1` [Compound 103] was 100 to 300 nM.
Turning to `Cn1cnnc1CC1(c2cccc(-n3cc4c(C(F)(F)F)cc(F)cn4c3=O)c2)COC1` [Compound 104], the IC50 lay within 100 to 300 nM.
As for `COc1cc(-n2cc3c(C(F)(F)F)cc(Br)cn3c2=O)cc(C2(Cc3nncn3C)COC2)c1` [Compound 105], the IC50 lay in the range of 100 to 300 nM.
As to `Cn1cnnc1CC1(c2cccc(-n3cc4c(C(F)(F)F)cc(CN5CCNC(=O)C5)cn4c3=O)c2)COC1` [Compound 106], the IC50 fell in the range of 100 to 300 nM.
The value for `COc1cc(-n2cc3c(C(F)(F)F)cc(CN4CCC[C@H](C)C4)cn3c2=O)cc(C2(Cc3nncn3C)COC2)c1` [Compound 107] was < 100 nM; that for `COc1cc(-n2cc3c(C(F)(F)F)cc(CN4CCC5(CC5)C4)cn3c2=O)cc(C2(Cc3nncn3C)COC2)c1` [Compound 108] was < 100 nM.
In the case of `COc1cc(-n2cc3c(C(F)(F)F)cc(CN4CC[C@H](F)C4)cn3c2=O)cc(C2(Cc3nncn3C)COC2)c1` [Compound 109], the IC50 was < 100 nM.
As for `COc1cc(-n2cc3c(C(F)(F)F)cc(CN4CC5(CC5)C4)cn3c2=O)cc(C2(Cc3nncn3C)COC2)c1` [Compound 110], the IC50 is < 100 nM.
As to `Cn1cnnc1C1(c2cccc(-n3cc4c(C(F)(F)F)cc(CN5CCC(C)(F)CC5)cn4c3=O)c2)CC2(CC2)C1` [Compound 111], the half-inhibitory concentration (IC50) was < 100 nM.
Consider `Cn1cnnc1C1(c2cccc(-n3cc4c(C(F)(F)F)cc(CN5CCC(F)CC5)cn4c3=O)c2)CC2(CC2)C1` [Compound 112], for which the IC50 is < 100 nM.
For `Cn1cnnc1C1(c2cccc(-n3cc4c(C(F)(F)F)cc(C#N)cn4c3=O)c2)CC2(CC2)C1` [Compound 113], the IC50 is 301 to 1000 nM.
In the case of `Cn1cnnc1C1(c2cccc(-n3cc4c(C(F)(F)F)cc(CN5CC6(CC6)C5)cn4c3=O)c2)CC2(CC2)C1` [Compound 114], the IC50 is < 100 nM.
With `Cn1cnnc1C1(c2cccc(-n3cc4c(C(F)(F)F)cc(CN5CCC6(CC6)C5)cn4c3=O)c2)CC2(CC2)C1` [Compound 115] the figure was < 100 nM.
With `C[C@@H]1CN(Cc2cc(C(F)(F)F)c3cn(-c4cccc(C5(c6nncn6C)CC6(CC6)C5)c4)c(=O)n3c2)CCO1` [Compound 116] the figure was < 100 nM; with `Cn1cnnc1C1(c2cccc(-n3cc4c(C(F)(F)F)cc(CN5CC[C@H](F)C5)cn4c3=O)c2)CC2(CC2)C1` [Compound 117], < 100 nM; with `[2H]C([2H])([2H])n1cnnc1C1(c2cccc(-n3cc4c(C(F)(F)F)cc(CN5CCO[C@H](C)C5)cn4c3=O)c2)CC2(CC2)C1` [Compound 118], < 100 nM.
On to `COc1cc(-n2cc3c(C(F)(F)F)cc(CN4CCC(C)(F)CC4)cn3c2=O)cc(C2(Cc3nncn3C)COC2)c1` [Compound 121], for which the IC50 was < 100 nM.
As for `CO[C@H]1CCCN(Cc2cc(C(F)(F)F)c3cn(-c4cccc(C5(Cc6nncn6C)COC5)c4)c(=O)n3c2)C1` [Compound 123], the IC50 is < 100 nM.
In the case of `CO[C@@H]1CCCN(Cc2cc(C(F)(F)F)c3cn(-c4cccc(C5(Cc6nncn6C)COC5)c4)c(=O)n3c2)C1` [Compound 124], the IC50 was < 100 nM.
With `Cn1cnnc1CC1(c2cccc(-n3cc4c(C(F)(F)F)cc(CN5CCC[C@H](O)C5)cn4c3=O)c2)COC1` [Compound 125] the figure was < 100 nM.
Consider `Cn1cnnc1CC1(c2cccc(-n3cc4c(C(F)(F)F)cc(CN5CCC[C@@H](O)C5)cn4c3=O)c2)COC1` [Compound 126], for which the IC50 is < 100 nM.
On to `Cn1cnnc1C(c1cccc(-n2cc3c(C(F)(F)F)cc(Br)cn3c2=O)c1)C1COC1` (stereo not drawn) [Compound 127], for which the concentration for half-maximal inhibition (IC50) was in the range of 301 to 1000 nM.
As to `Cn1cnnc1CC1(c2cccc(-n3cc4c(C(F)(F)F)cc(CN5CC6(COC6)C5)cn4c3=O)c2)COC1` [Compound 128], the IC50 was < 100 nM.
Consider `Cn1cnnc1CC1(c2cccc(-n3cc4c(C(F)(F)F)cc(CN5CC[C@H](O)C5)cn4c3=O)c2)COC1` [Compound 129], for which the IC50 was in the range of 100 to 300 nM.
Take `Cn1cnnc1CC1(c2cccc(-n3cc4c(C(F)(F)F)cc(CN5CC[C@@H](O)C5)cn4c3=O)c2)COC1` [Compound 130]: the IC50 is 100 to 300 nM.
With `Cn1cnnc1CC1(c2cccc(-n3cc4c(C(F)(F)F)cc(CN5CC6(CCO6)C5)cn4c3=O)c2)COC1` [Compound 131] the figure was < 100 nM; with `CN(Cc1nncn1C)c1cccc(-n2cc3c(C(F)(F)F)cc(Br)cn3c2=O)c1` [Compound 132], > 10000 nM; with `Cn1cnnc1CC1(c2cccc(-n3cc4c(C(F)(F)F)cccn4c3=O)c2)CN(C(=O)OC(C)(C)C)C1` [Compound 133], > 10000 nM.
In the case of `CC(=O)NCc1cc(C(F)(F)F)c2cn(-c3cccc(C4(Cc5nncn5C)COC4)c3)c(=O)n2c1` [Compound 139], the IC50 lay in the range of 100 to 300 nM.
Consider `C[C@H]1CCCN(Cc2cc(C(F)(F)F)c3cn(-c4cccc([C@H](c5nncn5C)C5COC5)c4)c(=O)n3c2)C1` [Compound 140], for which the IC50 is < 100 nM.
For the molecule `Cn1cnnc1C(c1cccc(-n2cc3c(C(F)(F)F)cccn3c2=O)c1)C1COC1` (stereo not drawn) [Compound 141], the IC50 was in the range of 1000 to 3000 nM.
With `Cn1cnnc1CC(c1cccc(-n2cc3c(C(F)(F)F)cccn3c2=O)c1)n1cccn1` (stereo not drawn) [Compound 142] the figure was > 10000 nM.
With `CC(=O)N1CC(Cc2nncn2C)(c2cccc(-n3cc4c(C(F)(F)F)cccn4c3=O)c2)C1` [Compound 143] the figure was > 10000 nM.
As for `Cn1cnnc1CC1(c2cccc(-n3cc4c(C(F)(F)F)cccn4c3=O)c2)CNC1` [Compound 144], the IC50 is > 10000 nM.
The value for `[2H]C([2H])([2H])n1cnnc1CC1(c2cccc(-n3cc4c(C(F)(F)F)cc(Br)cn4c3=O)c2)COC1` [Compound 145] was 100 to 300 nM; that for `Cn1cnnc1CC1(n2cc(-n3cc4c(C(F)(F)F)cccn4c3=O)cn2)COC1` [Compound 146] was > 10000 nM; that for `O=c1n(-c2cccc(C3(Cc4nnco4)COC3)c2)cc2c(C(F)(F)F)cccn12` [Compound 147] was > 10000 nM.
Regarding `Cn1cnnc1CC(c1ccccc1)c1cccc(-n2cc3c(C(F)(F)F)cccn3c2=O)c1` (stereo not drawn) [Compound 148], the IC50 was > 10000 nM.
The value for `Cn1cnnc1CSc1cccc(-n2cc3c(C(F)(F)F)cccn3c2=O)c1` [Compound 149] was > 10000 nM; that for `Cn1cnnc1CC1(c2cccc(-n3cc4c(C(F)(F)F)cc(CN5CCOC(C)(C)C5)cn4c3=O)c2)COC1` [Compound 153] was < 100 nM; that for `C[C@H]1CCCN(Cc2cc(C(F)(F)F)c3cn(-c4cccc(N(C)Cc5nncn5C)c4)c(=O)n3c2)C1` [Compound 155] was 3000 to 10000 nM.
Regarding `Cn1cnnc1[C@H](c1cccc(-n2cc3c(C(F)(F)F)cc(CN4CC[C@H](F)C4)cn3c2=O)c1)C1CCC1` [Compound 158], the IC50 is 3000 to 10000 nM.
On to `Cn1cnnc1[C@H](c1cccc(-n2cc3c(C(F)(F)F)cc(CN4CCC(C)(F)CC4)cn3c2=O)c1)C1CCC1` [Compound 160], for which the IC50 lay within 1000 to 3000 nM.
With `Cn1cnnc1CC1(c2cccc(-n3cc4c(C(F)(F)F)cc(CN5CCCC[C@H](O)C5)cn4c3=O)c2)COC1` [Compound 166] the figure was < 100 nM; with `Cn1cnnc1CC1(c2cccc(-n3cc4c(C(F)(F)F)cc(CN5CCCC[C@@H](O)C5)cn4c3=O)c2)COC1` [Compound 167], < 100 nM.
Take `Cc1conc1CC1(c2cccc(-n3cc4c(C(F)(F)F)cc(Br)cn4c3=O)c2)COC1` [Compound 168]: the IC50 was in the range of 100 to 300 nM.
As to `CNS(=O)(=O)c1cc(C(F)(F)F)c2cn(-c3cccc(C4(Cc5nncn5C)COC4)c3)c(=O)n2c1` [Compound 175], the IC50 is 1000 to 3000 nM.
Regarding `Cn1cnnc1CC1(c2cccc(-n3cc4c(C(F)(F)F)cc(C5CCN(CC(F)(F)F)CC5)cn4c3=O)c2)COC1` [Compound 178], the IC50 fell in the range of 301 to 1000 nM.
`Cn1cnnc1CC1(c2cccc(-n3cc4c(C(F)(F)F)cc(C5(O)CCNCC5)cn4c3=O)c2)COC1` [Compound 179]: the half-maximal inhibitory concentration (IC50) fell in the range of 100 to 300 nM.
Take `Cn1cnnc1CC1(c2cc(Br)cc(-n3cc4c(C(F)(F)F)cccn4c3=O)c2)COC1` [Compound 180]: the IC50 lay in the range of 3000 to 10000 nM.
